According to PubChem BioAssay AID2060885 (Molecular Pharmacology Branch, DTP, NCI, 2025):

System: NCI-H23 complex spheroids with HUVEC/MSC, viability
Test: Anticancer human tumor NCI-H23 cell line growth inhibition [RAS];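 further: spheroids exposed to compound for 7 days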;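 on viability, T/C: 100% = DMSO vehicle control viability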
Conditions: for IC50: curve of first compound; for viability, T/C: stronger effect = lower value
Summary of the method: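 Multi-cell-type spheroids: tumor cells plus HUVEC endothelial cells and mesenchymal stem cells. RAS-pathway inhibitors were combined with targeted agents, each dosed in half-log steps down from clinical Cmax, or from 10 microM when Cmax was unknown.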

[1] = second compound 0.00316 µM, first compound 0.000949 µM
[2] = second compound 0.00316 µM, first compound 0.003 µM
[3] = second compound 0.00316 µM, first compound 0.00949 µM
[4] = second compound 0.00316 µM, first compound 0.03 µM
[5] = second compound 0.00316 µM, first compound 0.0949 µM
[6] = second compound 0.00316 µM, first compound 0.3 µM
[7] = second compound 0.01 µM, first compound 0.000949 µM
[8] = second compound 0.01 µM, first compound 0.003 µM
[9] = second compound 0.01 µM, first compound 0.00949 µM
[10] = second compound 0.01 µM, first compound 0.03 µM
[11] = second compound 0.01 µM, first compound 0.0949 µM
[12] = second compound 0.01 µM, first compound 0.3 µM
[13] = second compound 0.0316 µM, first compound 0.000949 µM
[14] = second compound 0.0316 µM, first compound 0.003 µM
[15] = second compound 0.0316 µM, first compound 0.00949 µM
[16] = second compound 0.0316 µM, first compound 0.03 µM
[17] = second compound 0.0316 µM, first compound 0.0949 µM
[18] = second compound 0.0316 µM, first compound 0.3 µM
[19] = second compound 0.1 µM, first compound 0.000949 µM
[20] = second compound 0.1 µM, first compound 0.003 µM
[21] = second compound 0.1 µM, first compound 0.00949 µM
[22] = second compound 0.1 µM, first compound 0.03 µM
[23] = second compound 0.1 µM, first compound 0.0949 µM
[24] = second compound 0.1 µM, first compound 0.3 µM
[25] = second compound 0.316 µM, first compound 0.000949 µM
[26] = second compound 0.316 µM, first compound 0.003 µM
[27] = second compound 0.316 µM, first compound 0.00949 µM
[28] = second compound 0.316 µM, first compound 0.03 µM
[29] = second compound 0.316 µM, first compound 0.0949 µM
[30] = second compound 0.316 µM, first compound 0.3 µM
[31] = second compound 1 µM, first compound 0.000949 µM
[32] = second compound 1 µM, first compound 0.003 µM
[33] = second compound 1 µM, first compound 0.00949 µM
[34] = second compound 1 µM, first compound 0.03 µM
[35] = second compound 1 µM, first compound 0.0949 µM
[36] = second compound 1 µM, first compound 0.3 µM
[37] = second compound 0.000949 µM, first compound 0.00316 µM
[38] = second compound 0.000949 µM, first compound 0.01 µM
[39] = second compound 0.000949 µM, first compound 0.0316 µM
[40] = second compound 0.000949 µM, first compound 0.1 µM
[41] = second compound 0.000949 µM, first compound 0.316 µM
[42] = second compound 0.000949 µM, first compound 1 µM
[43] = second compound 0.003 µM, first compound 0.00316 µM
[44] = second compound 0.003 µM, first compound 0.01 µM
[45] = second compound 0.003 µM, first compound 0.0316 µM
[46] = second compound 0.003 µM, first compound 0.1 µM
[47] = second compound 0.003 µM, first compound 0.316 µM
[48] = second compound 0.003 µM, first compound 1 µM
[49] = second compound 0.00949 µM, first compound 0.00316 µM
[50] = second compound 0.00949 µM, first compound 0.01 µM
[51] = second compound 0.00949 µM, first compound 0.0316 µM
[52] = second compound 0.00949 µM, first compound 0.1 µM
[53] = second compound 0.00949 µM, first compound 0.316 µM
[54] = second compound 0.00949 µM, first compound 1 µM
[55] = second compound 0.03 µM, first compound 0.00316 µM
[56] = second compound 0.03 µM, first compound 0.01 µM
[57] = second compound 0.03 µM, first compound 0.0316 µM
[58] = second compound 0.03 µM, first compound 0.1 µM
[59] = second compound 0.03 µM, first compound 0.316 µM
[60] = second compound 0.03 µM, first compound 1 µM
[61] = second compound 0.0949 µM, first compound 0.00316 µM
[62] = second compound 0.0949 µM, first compound 0.01 µM
[63] = second compound 0.0949 µM, first compound 0.0316 µM
[64] = second compound 0.0949 µM, first compound 0.1 µM
[65] = second compound 0.0949 µM, first compound 0.316 µM
[66] = second compound 0.0949 µM, first compound 1 µM
[67] = second compound 0.3 µM, first compound 0.00316 µM
[68] = second compound 0.3 µM, first compound 0.01 µM
[69] = second compound 0.3 µM, first compound 0.0316 µM
[70] = second compound 0.3 µM, first compound 0.1 µM
[71] = second compound 0.3 µM, first compound 0.316 µM
[72] = second compound 0.3 µM, first compound 1 µM

CC1(C)CCC(Nc2ncc(C(F)(F)F)c(-c3c[nH]c4c(P(C)(C)=O)c(C#N)ccc34)n2)CN1 (stereo not drawn) + C=CC(=O)N1CCN(c2nc(OCC3CCCN3C)nc3c(F)c(-c4nc(N)cc(C)c4C(F)(F)F)c(Cl)cc23)C(C)C1
IC50 (second compound 0.00316 µM): 1.11 nM
IC50 (second compound 0.01 µM): < 0.949 nM
IC50 (second compound 0.0316 µM): < 0.949 nM
IC50 (second compound 0.1 µM): < 0.949 nM
IC50 (second compound 0.316 µM): < 0.949 nM
IC50 (second compound 1 µM): < 0.949 nM
viability, T/C [1]: 50.9%
viability, T/C [2]: 41.2%
viability, T/C [3]: 37%
viability, T/C [4]: 25.2%
viability, T/C [5]: 26.9%
viability, T/C [6]: 27.6%
viability, T/C [7]: 36.5%
viability, T/C [8]: 38.3%
viability, T/C [9]: 24.9%
viability, T/C [10]: 24%
viability, T/C [11]: 22.5%
viability, T/C [12]: 20%
viability, T/C [13]: 33.6%
viability, T/C [14]: 27.2%
viability, T/C [15]: 23.2%
viability, T/C [16]: 21%
viability, T/C [17]: 21.2%
viability, T/C [18]: 18.2%
viability, T/C [19]: 29.8%
viability, T/C [20]: 28.9%
viability, T/C [21]: 23.1%
viability, T/C [22]: 21.3%
viability, T/C [23]: 19.2%
viability, T/C [24]: 19.4%
viability, T/C [25]: 30.1%
viability, T/C [26]: 30.4%
viability, T/C [27]: 24.1%
viability, T/C [28]: 20.7%
viability, T/C [29]: 20.6%
viability, T/C [30]: 19.5%
viability, T/C [31]: 29.3%
viability, T/C [32]: 28.7%
viability, T/C [33]: 27.5%
viability, T/C [34]: 22.4%
viability, T/C [35]: 23.6%
viability, T/C [36]: 20.5%

CCc1c2c(nc3ccc(O)cc13)-c1cc3c(c(=O)n1C2)COC(=O)[C@]3(O)CC + C=CC(=O)N1CCN(c2nc(OCC3CCCN3C)nc3c(F)c(-c4nc(N)cc(C)c4C(F)(F)F)c(Cl)cc23)C(C)C1
IC50 (second compound 0.00316 µM): < 0.949 nM
IC50 (second compound 0.01 µM): < 0.949 nM
IC50 (second compound 0.0316 µM): < 0.949 nM
IC50 (second compound 0.1 µM): < 0.949 nM
IC50 (second compound 0.316 µM): < 0.949 nM
IC50 (second compound 1 µM): < 0.949 nM
viability, T/C [1]: 41.6%
viability, T/C [2]: 33.6%
viability, T/C [3]: 11.7%
viability, T/C [4]: 3.8%
viability, T/C [5]: 2.71%
viability, T/C [6]: 2.26%
viability, T/C [7]: 40.6%
viability, T/C [8]: 26%
viability, T/C [9]: 8.37%
viability, T/C [10]: 3.98%
viability, T/C [11]: 2.14%
viability, T/C [12]: 1.54%
viability, T/C [13]: 33.3%
viability, T/C [14]: 22.2%
viability, T/C [15]: 9.5%
viability, T/C [16]: 4.43%
viability, T/C [17]: 2.52%
viability, T/C [18]: 1.84%
viability, T/C [19]: 32.5%
viability, T/C [20]: 19.6%
viability, T/C [21]: 6.47%
viability, T/C [22]: 3.28%
viability, T/C [23]: 2.14%
viability, T/C [24]: 2.49%
viability, T/C [25]: 27.8%
viability, T/C [26]: 17.5%
viability, T/C [27]: 7.44%
viability, T/C [28]: 3.62%
viability, T/C [29]: 2.47%
viability, T/C [30]: 3.05%
viability, T/C [31]: 25.9%
viability, T/C [32]: 21.2%
viability, T/C [33]: 8.12%
viability, T/C [34]: 4.94%
viability, T/C [35]: 2.44%
viability, T/C [36]: 2.51%

C=CC(=O)Nc1cc(Nc2nccc(-c3cn(C)c4ccccc34)n2)c(OC)cc1N(C)CCN(C)C + CCn1c(-c2cc(N3CCN(C)CC3)cnc2C(C)OC)c2c3cc(ccc31)-c1csc(n1)CC(NC(=O)C1CC1C)C(=O)N1CCCC(N1)C(=O)OCC(C)(C)C2
IC50 (second compound 0.000949 µM): < 3.16 nM
IC50 (second compound 0.003 µM): < 3.16 nM
IC50 (second compound 0.00949 µM): < 3.16 nM
IC50 (second compound 0.03 µM): < 3.16 nM
IC50 (second compound 0.0949 µM): < 3.16 nM
IC50 (second compound 0.3 µM): < 3.16 nM
viability, T/C [37]: 51.5%
viability, T/C [38]: 45.7%
viability, T/C [39]: 34.4%
viability, T/C [40]: 50.4%
viability, T/C [41]: 31.4%
viability, T/C [42]: 27.6%
viability, T/C [43]: 35.8%
viability, T/C [44]: 32.6%
viability, T/C [45]: 30.1%
viability, T/C [46]: 29.8%
viability, T/C [47]: 27.1%
viability, T/C [48]: 19%
viability, T/C [49]: 30.7%
viability, T/C [50]: 27.9%
viability, T/C [51]: 29.3%
viability, T/C [52]: 25.4%
viability, T/C [53]: 22.1%
viability, T/C [54]: 15.6%
viability, T/C [55]: 27.5%
viability, T/C [56]: 23.6%
viability, T/C [57]: 29.1%
viability, T/C [58]: 25%
viability, T/C [59]: 17.5%
viability, T/C [60]: 15%
viability, T/C [61]: 18.7%
viability, T/C [62]: 19.6%
viability, T/C [63]: 22.2%
viability, T/C [64]: 16.4%
viability, T/C [65]: 8.97%
viability, T/C [66]: 12.2%
viability, T/C [67]: 16.5%
viability, T/C [68]: 18.1%
viability, T/C [69]: 17.2%
viability, T/C [70]: 12.3%
viability, T/C [71]: 10.5%
viability, T/C [72]: 11.8%

O=C(c1ccc(F)c(F)c1Nc1ccc(I)cc1F)N1CC(O)([C@@H]2CCCCN2)C1 + CCn1c(-c2cc(N3CCN(C)CC3)cnc2C(C)OC)c2c3cc(ccc31)-c1csc(n1)CC(NC(=O)C1CC1C)C(=O)N1CCCC(N1)C(=O)OCC(C)(C)C2
IC50 (second compound 0.000949 µM): < 3.16 nM
IC50 (second compound 0.003 µM): < 3.16 nM
IC50 (second compound 0.00949 µM): < 3.16 nM
IC50 (second compound 0.03 µM): < 3.16 nM
IC50 (second compound 0.0949 µM): < 3.16 nM
IC50 (second compound 0.3 µM): < 3.16 nM
viability, T/C [37]: 40.8%
viability, T/C [38]: 42.1%
viability, T/C [39]: 30.3%
viability, T/C [40]: 27.7%
viability, T/C [41]: 14.7%
viability, T/C [42]: 7.09%
viability, T/C [43]: 31.5%
viability, T/C [44]: 33.4%
viability, T/C [45]: 22.9%
viability, T/C [46]: 20.1%
viability, T/C [47]: 10.2%
viability, T/C [48]: 5.97%
viability, T/C [49]: 33.3%
viability, T/C [50]: 20.2%
viability, T/C [51]: 19%
viability, T/C [52]: 10.2%
viability, T/C [53]: 5.94%
viability, T/C [54]: 5.43%
viability, T/C [55]: 24%
viability, T/C [56]: 15.2%
viability, T/C [57]: 10.5%
viability, T/C [58]: 7.97%
viability, T/C [59]: 5.26%
viability, T/C [60]: 5.71%
viability, T/C [61]: 16.1%
viability, T/C [62]: 11.9%
viability, T/C [63]: 8.79%
viability, T/C [64]: 6.35%
viability, T/C [65]: 5.88%
viability, T/C [66]: 5.06%
viability, T/C [67]: 12.4%
viability, T/C [68]: 9.36%
viability, T/C [69]: 8.61%
viability, T/C [70]: 5.57%
viability, T/C [71]: 5.66%
viability, T/C [72]: 6.36%
